# Literature values, collected in EP2736496B1, “PHARMACEUTICAL COMPOSITION CONTAINING AN ANTIMUSCARINIC AGENT AND METHOD FOR THE PREPARATION THEREOF” (Pharmathen S.A., priority 2011, dated 2013).
smiles,measurement,value
"Cc1ccc(O)c([C@H](CCN(C(C)C)C(C)C)c2ccccc2)c1 [Tolterodine, (R)-N, N-diisopropyl-3-(2-hydroxy-5-methylphenyl)-3-phenylpropylamine]",water solubility,12 mg/mL
